Article PMC10882719 (Frontiers in Neuroscience, 2024)
Like-named read-outs stand apart in the source and are kept apart here.

Columns and labels:
Type in all cases: cell-based
168 GPCRs [1] = target: T1, 168 GPCRs (Homo sapiens, UniProt O43613)
T1 construct: host or cells: PathHunter cell lines
T1 sequence (O43613 1-425): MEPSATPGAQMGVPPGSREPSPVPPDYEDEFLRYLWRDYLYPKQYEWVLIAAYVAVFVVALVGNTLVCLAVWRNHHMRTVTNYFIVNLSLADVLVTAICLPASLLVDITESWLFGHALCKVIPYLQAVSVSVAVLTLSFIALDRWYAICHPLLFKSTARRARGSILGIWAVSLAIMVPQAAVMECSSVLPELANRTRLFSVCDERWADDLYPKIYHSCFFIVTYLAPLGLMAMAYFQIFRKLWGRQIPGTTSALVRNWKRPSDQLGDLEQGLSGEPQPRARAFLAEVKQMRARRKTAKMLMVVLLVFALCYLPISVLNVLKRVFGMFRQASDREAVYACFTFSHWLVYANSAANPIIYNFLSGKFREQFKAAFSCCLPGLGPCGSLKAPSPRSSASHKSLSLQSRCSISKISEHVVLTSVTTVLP

168 GPCRs [2] = target: T2, 168 GPCRs (Homo sapiens, UniProt P28222); settings: HTR1B
T2 construct: host or cells: PathHunter cell lines

168 GPCRs [3] = target: T3, 168 GPCRs (Homo sapiens, UniProt P30989); settings: NTSR1
T3 construct: host or cells: PathHunter cell lines

168 GPCRs [4] = target: T4, 168 GPCRs (Homo sapiens, UniProt P32248)
T4 construct: host or cells: PathHunter cell lines
T4 sequence (P32248 25-378): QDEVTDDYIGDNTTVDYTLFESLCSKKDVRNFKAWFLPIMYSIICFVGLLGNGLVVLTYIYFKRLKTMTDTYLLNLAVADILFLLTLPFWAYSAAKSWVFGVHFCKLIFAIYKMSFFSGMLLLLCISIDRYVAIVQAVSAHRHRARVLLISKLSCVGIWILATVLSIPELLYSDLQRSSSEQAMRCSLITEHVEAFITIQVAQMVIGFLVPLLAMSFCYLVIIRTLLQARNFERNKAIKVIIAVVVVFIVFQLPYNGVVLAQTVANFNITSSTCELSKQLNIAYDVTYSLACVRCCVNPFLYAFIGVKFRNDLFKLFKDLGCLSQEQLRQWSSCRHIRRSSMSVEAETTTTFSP

168 GPCRs [5] = target: T5, 168 GPCRs (Homo sapiens, UniProt P47211)
T5 construct: host or cells: PathHunter cell lines
T5 sequence (P47211 1-349): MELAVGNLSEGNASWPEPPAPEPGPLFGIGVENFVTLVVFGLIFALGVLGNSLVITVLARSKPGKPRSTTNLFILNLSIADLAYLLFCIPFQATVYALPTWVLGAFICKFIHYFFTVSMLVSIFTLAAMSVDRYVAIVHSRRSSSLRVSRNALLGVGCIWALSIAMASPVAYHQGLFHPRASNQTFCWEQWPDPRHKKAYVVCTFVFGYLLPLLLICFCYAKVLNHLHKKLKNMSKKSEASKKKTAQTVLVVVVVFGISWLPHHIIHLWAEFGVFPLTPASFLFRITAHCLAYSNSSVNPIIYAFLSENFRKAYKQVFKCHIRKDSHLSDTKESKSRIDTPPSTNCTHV

168 GPCRs [6] = target: T6, 168 GPCRs (Homo sapiens, UniProt Q9HB89); settings: NMU1R
T6 construct: host or cells: PathHunter cell lines
T6 sequence (Q9HB89 1-426): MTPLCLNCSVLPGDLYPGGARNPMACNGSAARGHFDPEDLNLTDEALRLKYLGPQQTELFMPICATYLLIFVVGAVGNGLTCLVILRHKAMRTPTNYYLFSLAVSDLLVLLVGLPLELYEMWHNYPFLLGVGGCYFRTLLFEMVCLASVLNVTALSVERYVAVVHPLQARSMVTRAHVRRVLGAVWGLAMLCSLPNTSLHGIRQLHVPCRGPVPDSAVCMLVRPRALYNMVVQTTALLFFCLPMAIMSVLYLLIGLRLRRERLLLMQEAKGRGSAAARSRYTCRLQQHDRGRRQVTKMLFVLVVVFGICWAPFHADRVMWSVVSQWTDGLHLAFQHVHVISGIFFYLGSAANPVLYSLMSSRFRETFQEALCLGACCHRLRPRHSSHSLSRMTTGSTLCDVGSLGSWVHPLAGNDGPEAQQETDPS

168 GPCRs [7] = target: T7, 168 GPCRs (Homo sapiens, UniProt Q9P296)
T7 construct: host or cells: PathHunter cell lines
T7 sequence (Q9P296 whole entry): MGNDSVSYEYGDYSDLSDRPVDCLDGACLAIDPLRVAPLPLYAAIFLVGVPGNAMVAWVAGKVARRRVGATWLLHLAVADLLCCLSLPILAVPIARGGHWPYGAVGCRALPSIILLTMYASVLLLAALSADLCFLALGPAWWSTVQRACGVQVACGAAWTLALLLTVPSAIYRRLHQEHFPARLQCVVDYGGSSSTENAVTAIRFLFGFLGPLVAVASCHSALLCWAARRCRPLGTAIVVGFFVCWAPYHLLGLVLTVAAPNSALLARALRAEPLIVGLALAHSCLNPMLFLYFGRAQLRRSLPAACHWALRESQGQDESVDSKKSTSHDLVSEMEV

T2 sequence (P28222 whole entry): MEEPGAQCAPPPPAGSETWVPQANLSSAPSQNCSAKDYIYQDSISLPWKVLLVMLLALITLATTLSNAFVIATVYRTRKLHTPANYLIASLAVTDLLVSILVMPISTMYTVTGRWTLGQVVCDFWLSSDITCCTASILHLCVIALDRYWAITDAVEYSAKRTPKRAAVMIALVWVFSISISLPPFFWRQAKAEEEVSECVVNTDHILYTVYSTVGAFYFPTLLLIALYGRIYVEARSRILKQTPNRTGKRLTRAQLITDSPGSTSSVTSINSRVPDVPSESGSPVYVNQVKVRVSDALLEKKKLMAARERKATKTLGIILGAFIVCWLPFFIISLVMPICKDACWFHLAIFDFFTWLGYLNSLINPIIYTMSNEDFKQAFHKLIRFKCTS
T3 sequence (P30989 whole entry): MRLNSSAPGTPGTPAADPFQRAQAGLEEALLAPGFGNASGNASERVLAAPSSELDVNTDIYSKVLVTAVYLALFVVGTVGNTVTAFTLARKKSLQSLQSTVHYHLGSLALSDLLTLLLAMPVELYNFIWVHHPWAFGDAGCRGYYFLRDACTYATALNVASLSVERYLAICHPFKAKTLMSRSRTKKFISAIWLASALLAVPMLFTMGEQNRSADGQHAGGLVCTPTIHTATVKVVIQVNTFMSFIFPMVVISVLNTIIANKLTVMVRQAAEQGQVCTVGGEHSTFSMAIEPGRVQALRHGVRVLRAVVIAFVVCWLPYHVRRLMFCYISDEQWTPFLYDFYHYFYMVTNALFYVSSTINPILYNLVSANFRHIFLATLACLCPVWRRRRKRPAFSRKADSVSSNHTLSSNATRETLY

| Compound | % Agonist Activity (168 GPCRs [1]; HCRTR1, 1 uM) [%] | % Antagonist Activity (168 GPCRs [1]; HCRTR1, 1 uM) [%] | % Agonist Activity (168 GPCRs [1]; HCRTR1, 10 uM) [%] | % Antagonist Activity (168 GPCRs [1]; HCRTR1, 10 uM) [%] | % Agonist Activity (168 GPCRs [2]; 1 uM) [%] | % Antagonist Activity (168 GPCRs [2]; 1 uM) [%] | % Agonist Activity (168 GPCRs [2]; 10 uM) [%] | % Antagonist Activity (168 GPCRs [2]; 10 uM) [%] | % Agonist Activity (168 GPCRs [3]; Conc 1 uM) [%] | % Antagonist Activity (168 GPCRs [3]; Conc 1 uM) [%] | % Agonist Activity (168 GPCRs [3]; Conc 10 uM) [%] | % Antagonist Activity (168 GPCRs [3]; Conc 10 uM) [%] | % Agonist Activity (168 GPCRs [4]; CCR7, 1 uM) [%] | % Antagonist Activity (168 GPCRs [4]; CCR7, 1 uM) [%] | % Agonist Activity (168 GPCRs [4]; CCR7, 10 uM) [%] | % Antagonist Activity (168 GPCRs [4]; CCR7, 10 uM) [%] | % Agonist Activity (168 GPCRs [5]; GALR1, 1 uM) [%] | % Antagonist Activity (168 GPCRs [5]; GALR1, 1 uM) [%] | % Agonist Activity (168 GPCRs [5]; GALR1, 10 uM) [%] | % Antagonist Activity (168 GPCRs [5]; GALR1, 10 uM) [%] | other results |
| --- | --- | --- | --- | --- | --- | --- | --- | --- | --- | --- | --- | --- | --- | --- | --- | --- | --- | --- | --- | --- | --- |
| CNC(C)Cc1ccc2c(c1)OCO2 (centres unmarked) [MDMA, 3,4-Methylenedioxy methamphetamine, reference compound] | -0.2 | 8.6 | -0.1 | 15 | 8.5 | -7.3 | 10.4 | -0.1 | -0.8 | 8.7 | 1.2 | 0.5 | 1.9 | 1.5 | 2.6 | 6.8 | 0.7 | -0.2 | 0.6 | -5.1 | % Agonist Activity (168 GPCRs [6]; 1 uM): 0%; % Antagonist Activity (168 GPCRs [6]; 1 uM): -3.7%; % Agonist Activity (168 GPCRs [6]; 10 uM): -0.1%; % Antagonist Activity (168 GPCRs [6]; 10 uM): 6.8%; % Agonist Activity (168 GPCRs [7]; C5L2, 1 uM): 7.7%; % Antagonist Activity (168 GPCRs [7]; C5L2, 1 uM): -5.5%; % Agonist Activity (168 GPCRs [7]; C5L2, 10 uM): 3.3%; % Antagonist Activity (168 GPCRs [7]; C5L2, 10 uM): -4% |
| CNC(C)C(=O)c1ccc2c(c1)OCO2 (centres unmarked) [methylone] | -0.1 | 2.3 | -0.1 | 1.2 | 3.3 | -9.5 | 6.7 | -6.2 | -4.7 | -0.7 | -3.5 | -1.7 | -3.4 | -8.3 | -3.7 | -3.4 | 0.8 | 7.1 | 0.6 | 6.8 | % Agonist Activity (168 GPCRs [6]; 1 uM): 1.3%; % Antagonist Activity (168 GPCRs [6]; 1 uM): -6.7%; % Agonist Activity (168 GPCRs [6]; 10 uM): 2%; % Antagonist Activity (168 GPCRs [6]; 10 uM): -9.3%; % Agonist Activity (168 GPCRs [7]; C5L2, 1 uM): 8.4%; % Antagonist Activity (168 GPCRs [7]; C5L2, 1 uM): 10%; % Agonist Activity (168 GPCRs [7]; C5L2, 10 uM): 12.9%; % Antagonist Activity (168 GPCRs [7]; C5L2, 10 uM): 1.4% |
